# Laboratory results published in patent publication US6858741B2, “Alkyl-dihalogenated phenyl-substituted ketoenols useful as pesticides and herbicides” (Bayer Aktiengesellschaft, priority 1995, dated 2005).
# Experiments:
# [1] = tested on: greenhouse red spider mite or two-spotted spider-mite (Tetranychus urticae); assay: Tetranychus test (OP-resistant/immersion treatment); type: in vivo; conditions: after 13 days; active compound concentration 0.1%; immersion treatment of bean plants
# Description: (§1) [table] To produce a suitable preparation of active compound, 1 part by weight of active compound is mixed with the stated amount of solvent and the stated amount of emulsifier, and the concentrate is diluted with water to the desired concentrations. Bean plants (Phaseolus vulgaris) which are severely infested with all development stages of the greenhouse red spider mite or two-spotted spider-mite (Tetranychus urticae) are immersed in a preparation of active compound of the desired concentration. After the specified period of time, the destruction in % is determined. 100% means that all the spider mites have been killed; 0% means that none of the spider mites have been killed.
# [2] = tested on: green rice leafhopper (Nephotettix cincticeps); assay: Nephotettix test; type: in vivo; conditions: after 6 days; active compound concentration 0.1%; dipped rice seedlings
# Description: [table] To produce a suitable preparation of active compound, 1 part by weight of active compound is mixed with the stated amount of solvent and the stated amount of emulsifier, and the concentrate is diluted with water to the desired concentration. Rice seedlings (Oryza sativa) are treated by being dipped into the preparation of active compound of the desired concentration and are infested with the green rice leafhopper (Nephotettix cincticeps) while the seedlings are still moist. After the specified period of time, the destruction in % is determined. 100% means that all the leafhoppers have been killed; 0% means that none of the leafhoppers have been killed.
# test plants [3] = assay: Pre-emergence test/greenhouse; type: in vivo; conditions: greenhouse, 250 g/ha, rated after three weeks vs untreated control, 0%=no action, 100%=total destruction
# Description: [table] To produce a suitable preparation of active compound, 1 part by weight of active compound is mixed with the stated amount of solvent, the stated amount of emulsifier is added and the concentrate is diluted with water to the desired concentration. Seeds of the test plants are sown in normal soil and, after 24 hours, watered with the preparation of the active compound. It is expedient to keep constant the amount of water per unit area The concentration of the active compound in the preparation is of no importance, only the amount of active compound applied per unit area being decisive. After three weeks, the degree of damage to the plants is rated in % damage in comparison to the development of the untreated control. The figures denote: • 0%=no action (like untreated control) 100%=total destruction [table]
# [4] = tested on: caterpillars of the diamond-back moth (Plutella maculipennis); assay: Plutella test; type: in vivo; conditions: after 7 days; active compound concentration 0.1%; dipped cabbage leaves
# Description: (§2) [table] To produce a suitable preparation of active compound, 1 part by weight of active compound is mixed with the stated amount of solvent and the stated amount of emulsifier, and the concentrate is diluted with water to the desired concentration. Cabbage leaves (Brassica oleracea) are treated by being dipped into the preparation of active compound of the desired concentration and are infested with caterpillars of the diamond-back moth (Plutella maculipennis) while the leaves are still moist. After the specified period of time, the destruction in % is determined. 100% means that all the caterpillars have been killed; 0% means that none of the caterpillars have been killed.
# fly larvae = assay: Test with fly larvae/development-inhibitory action; type: in vivo; conditions: active compound concentration 1000 ppm
# Description: [table] To produce a suitable formulation, 3 parts by weight of active compound are mixed with 7 parts of the abovementioned solvent/emulsifier mixture, and the resulting emulsion concentrate is diluted with water to the concentration desired in each case. For each concentration, 30 to 50 larvae are transferred to horsemeat (1 cm^3) located in glass tubes and 500 μl of the test dilution are pipetted onto the meat. The glass tubes are placed into plastic beakers whose bottom is covered with sea sand and kept in a control-environment cabinet (26° C.±1.5° C., 70% relative humidity±10%). The activity is checked after 24 hours and 48 hours (larvicidal action). After the larvae have left the glass tubes (approximately 72 hours), the tubes are removed, and perforated plastic lids are placed on the beakers. After 1½ times the development period (hatching of the control flies), the hatched flies and the pupae/puparia are counted. The criterion for the action is death in the treated larvae after 48 hours (larvicidal effect) or inhibition of adults hatching from the pupae or inhibition of pupation. The criterion for the in-vitro action of a substance is the inhibition of fly development or a standstill of development prior to the adult stage. 100% larvicidal activity means that all larvae have died after 48 hours. 100% development-inhibitory activity means that no adult flies have hatched.
# [5] = tested on: resistant Boophilus microplus, SP resistant Parkhurst strain; assay: Test with resistant Boophilus microplus / SP resistant Parkhurst strain; type: in vivo; conditions: active compound concentration 20 μg/animal; injected into the abdomen
# Description: [table] 20 mg of active compound are dissolved in 1 ml of dimethyl sulphoxide, and lesser concentrations are prepared by dilution with the same solvent. The test is carried out in 5 applications. 1 μl of the solutions is injected into the abdomen, and the animals are transferred into dishes and kept in a controlled-environment cabinet. The activity is determined via the inhibition of oviposition. 100% means that no tick has produced eggs.
# [6] = tested on: caterpillars of the fall armyworm (Spodoptera frugiperda); assay: Spodoptera test; type: in vivo; conditions: after 7 days; active compound concentration 0.1%; dipped cabbage leaves
# Description: as §2, with “fall armyworm (Spodoptera frugiperda)” for “diamond-back moth (Plutella maculipennis)”
# [7] = tested on: green peach aphid (Myzus persicae); assay: Myzus test; type: in vivo; conditions: after 6 days; active compound concentration 0.1%; dipped cabbage leaves
# Description: as §2, with “oleracea) which are severely infested with the green peach aphid (Myzus persicae)” for “oleracea)”, “concentration.” for “concentration and are infested with caterpillars of the diamond-back moth (Plutella maculipennis) while the leaves are still moist.”, “aphids” for “caterpillars”
# [8] = tested on: mustard beetle larvae (Phaedon cochleariae); assay: Phaedon larvae test; type: in vivo; conditions: after 7 days; active compound concentration 0.1%; dipped cabbage leaves
# Description: [table] To produce a suitable preparation of active compound, 1 part by weight of active compound is mixed with the stated amount of solvent and the stated amount of emulsifier, and the concentrate is diluted with water to the desired concentration. Cabbage leaves (Brassica oleracea) are treated by being dipped into the preparation of the active compound of the desired concentration and are infested with mustard beetle larvae (Phaedon cochleariae) while the leaves are still moist. After the specified period of time, the destruction in % is determined. 100% means that all the beetle larvae have been killed; 0% means that none of the beetle larvae have been killed.
# [9] = tested on: greenhouse red spider mite or two-spotted spider-mite (Tetranychus urticae); assay: Tetranychus test (OP-resistant/spray treatment); type: in vivo; conditions: after 7 days; active compound concentration 0.004%; spray treatment of bean plants
# Description: as §1, with “sprayed with” for “immersed in”
# test plants [10] = assay: Post-emergence test; type: in vivo; conditions: post-emergence (footnote *); 250 g/ha; rated after three weeks vs untreated control; 0%=no action, 100%=total destruction
structure (smiles),measurement,setting,value
"Cc1cc(Cl)c(C2=C(O)C3(CCC(C)CC3)NC2=O)c(Cl)c1 (single isomer, unassigned) [Example I-1-a-7]",activity (destruction),[1],100%
same,destruction,[2],100%
same,"degree of damage, Alopecurus myosuroides",test plants [3],100%
same,"degree of damage, Avena fatua",test plants [3],90%
same,"degree of damage, Setaria viridis",test plants [3],100%
same,"degree of damage, Sinapis arvensis",test plants [3],100%
same,destruction,[4],100%
"Cc1cc(Cl)cc(Cl)c1C1=C(OC(=O)C(C)C)C2(CCCC(C)C2)NC1=O (single isomer, unassigned) [Example I-1-b-3]",activity (larvicidal / development-inhibitory),fly larvae,100%
same,activity (inhibition of oviposition),[5],100%
"Cc1cc(Cl)cc(Cl)c1C1=C(OC(=O)c2ccccc2)C2(CCCC(C)C2)NC1=O (single isomer, unassigned) [Example I-1-b-5]",destruction,[6],100%
"CCOC(=O)OC1=C(c2c(C)cc(Cl)cc2Cl)C(=O)NC12CCC(C)CC2 (single isomer, unassigned) [Example I-1-c-4]",activity (destruction),[1],100%
same,destruction,[2],100%
same,"degree of damage, Alopecurus myosuroides",test plants [3],100%
same,"degree of damage, Avena fatua",test plants [3],100%
same,"degree of damage, Beta vulgaris",test plants [3],50%
same,"degree of damage, Setaria viridis",test plants [3],100%
same,"degree of damage, Sinapis arvensis",test plants [3],100%
Cc1cc(Cl)cc(Cl)c1C1=C(O)C(C)(C(C)C)NC1=O (stereo not shown) [Example I-1-a-1],destruction,[7],100%
same,destruction,[2],100%
same,destruction,[4],100%
Cc1cc(Cl)cc(Cl)c1C1=C(O)C2(CCOCC2)NC1=O [Example I-1-a-5],activity (larvicidal / development-inhibitory),fly larvae,100%
same,activity (inhibition of oviposition),[5],100%
Cc1cc(Cl)c(C2=C(O)C3(CCOCC3)NC2=O)c(Cl)c1 [Example I-1-a-10],activity (destruction),[1],100%
same,destruction,[8],100%
CC(=O)OC1=C(c2c(C)cc(Cl)cc2Cl)C(=O)NC12CCCCC2 [Example I-1-b-7],activity (destruction),[1],100%
same,destruction,[7],100%
same,destruction,[8],100%
same,"degree of damage, Alopecurus myosuroides",test plants [3],95%
same,"degree of damage, Avena fatua",test plants [3],80%
same,"degree of damage, Beta vulgaris",test plants [3],30%
same,"degree of damage, Setaria viridis",test plants [3],100%
same,"degree of damage, Sinapis arvensis",test plants [3],100%
"Cc1cc(Cl)cc(Cl)c1C1=C(O)C2(CCCCC2)OC1=O [Example I-2-a-1, 3-(2,4-dichloro-6-methyl-phenyl)-5-spirocyclohexyltetronic acid]",melting point,,> 240 °C
Cc1cc(Cl)c(C2=C(O)C3(CCCCC3)OC2=O)c(Cl)c1 [Example I-2-a-5],destruction,[7],100%
Cc1cc(Cl)c(C2=C(O)C3(CCC(C)CC3)OC2=O)c(Cl)c1 (stereo not shown) [Example I-2-a-6],destruction,[7],100%
same,activity (larvicidal / development-inhibitory),fly larvae,100%
same,destruction,[8],100%
same,activity (inhibition of oviposition),[5],100%
"Cc1cc(Cl)cc(Cl)c1C1=C(OC(=O)C(C)(C)C)C2(CCCCC2)OC1=O [Example I-2-b-1, 4-pivaloyl-oxy-3-(2,4-dichloro-6-methyl-phenyl)-5-spiro-cyclohexyl-tetronic acid]",activity (destruction),[9],100%
same,melting point,,137 °C
Cc1cc(Cl)c(C2=C(O)C3(CCCCC3)SC2=O)c(Cl)c1 [Example I-3-a-2],activity (destruction),[1],100%
same,destruction,[2],100%
same,destruction,[8],100%
same,"degree of damage, Amaranthus",test plants [3],60%
same,"degree of damage, Beta vulgaris",test plants [3],0%
Cc1cc(Cl)c(C2=C(OC(=O)C(C)(C)C)C3(CCCCC3)SC2=O)c(Cl)c1 [Example I-3-b-1],activity (destruction),[1],100%
same,destruction,[2],100%
same,destruction,[4],100%
Cc1cc(Cl)cc(Cl)c1-c1c(O)c(C)c(-c2ccccn2)oc1=O [Example I-5-a-1],"degree of damage, Alopecurus myosuroides",test plants [10],80%
same,"degree of damage, Beta vulgaris",test plants [10],0%
same,"degree of damage, Alopecurus myosuroides",test plants [3],80%
same,"degree of damage, Beta vulgaris",test plants [3],0%
